*1 amine or outer side, *2 acyl side, *3 side chain or, on linkers, in order; H or OH if unused. Where a SMILES comes first, the peptide text is derived from it. Bridges are numbered along the chain shown (N, C = ends). [ ]: non-standard residue; d: D form. The star is where a group is joined. Phe(4-CH2NH2) = NCc1ccc(C[C@H](N)C(=O)O)cc1; Bip = N[C@@H](Cc1ccc(-c2ccccc2)cc1)C(=O)O; Phe(3-Me) = Cc1cccc(C[C@H](N)C(=O)O)c1; NH(CH2)8CO = O=C(CCCCCCCCN[*:1])[*:2]; Cha = N[C@@H](CC1CCCCC1)C(=O)O; 12Ado = NCCCCCCCCCCCC(=O)O; Carboxymethyl = O=C(O)C*; NMeA = CN[C@@H](C)C(=O)O; Orn = NCCC[C@H](N)C(=O)O; Aun = NCCCCCCCCCCC(=O)O; Dab = NCC[C@H](N)C(=O)O; AEEA = NCCOCCOCC(=O)O; Ac3c = NC1(C(=O)O)CC1

T1 sequence (Q15116 25-288): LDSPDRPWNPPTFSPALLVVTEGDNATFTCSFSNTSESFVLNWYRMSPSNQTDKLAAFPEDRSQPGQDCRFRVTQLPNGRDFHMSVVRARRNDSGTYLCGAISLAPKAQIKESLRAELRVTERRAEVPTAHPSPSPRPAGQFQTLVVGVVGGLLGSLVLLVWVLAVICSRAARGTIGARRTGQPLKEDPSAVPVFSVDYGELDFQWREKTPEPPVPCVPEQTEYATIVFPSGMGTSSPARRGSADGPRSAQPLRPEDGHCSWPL

The assay concerns the target T1, PD-1/PD-L1 interaction (PE-labeled human PD-L1-Ig binding to Jurkat cell line over-expressing human PD-1) (Homo sapiens, UniProt Q15116).
T1 construct: expressed in transfected cells; host or cells: Jurkat
As to the kind of experiment: Jurkat-PD-1 Cell Binding High-Content Screening Assay (CBA). To be noted: PE-labeled PD-L1-Ig 20 nM final, Jurkat-hPD-1 cells; read-out: Jurkat HPD1 PDL1 IC50. The essentials:
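High-content imaging read-out of PE-PD-L1-Ig binding (20 nM final, 1 h) to Jurkat-hPD-1 cells, after 2 h compound exposure at 37 °C in DMEM with 10% FCS. Nuclei counterstained with Hoechst 33342 after paraformaldehyde fixation.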
One may read the IC50 as the concentration that inhibits the measured activity by half. With `Cc1cccc(C[C@@H]2NC(=O)[C@H](CC(=O)O)NC(=O)[C@H](Cc3ccc(OCC(=O)O)cc3)NC(=O)[C@H]([C@@H](C)O)NC(=O)CSC[C@@H](C(=O)N[C@@H](CCN)C(=O)NCCOCCOCC(=O)NCCCCCCCCCCCC(=O)O)NC(=O)CNC(=O)[C@H](C(C)C)NC(=O)[C@H](CC3CCCCC3)NC(=O)[C@H](CCN)NC(=O)[C@@H](CC(C)C)NC(=O)[C@H](C)N(C)C(=O)[C@H](Cc3ccc(OCC(=O)O)cc3)NC(=O)[C@H](Cc3ccc(-c4ccccc4)cc3)NC(=O)[C@H](Cc3ccc(OCC(=O)O)cc3)NC2=O)c1` [Example 2664] ({CH2CO}-TY(Carboxymethyl)D[Phe(3-Me)]Y(Carboxymethyl)[Bip]Y(Carboxymethyl)[NMeA][dL][Dab][Cha]VGC[Dab][AEEA][12Ado]-OH; thioether N-14), the IC50 is 2.3 nM. `Cc1cccc(C[C@@H]2NC(=O)[C@H](CC(=O)O)NC(=O)[C@H](Cc3ccc(OCC(=O)O)cc3)NC(=O)[C@H]([C@@H](C)O)NC(=O)CSC[C@@H](C(=O)N[C@@H](CCN)C(=O)NCCOCCOCC(=O)NCCCCCCCCCCCC(=O)O)NC(=O)[C@H](CCC(=O)O)NC(=O)[C@H](C(C)C)NC(=O)[C@H](CC3CCCCC3)NC(=O)[C@H](CCN)NC(=O)[C@@H](CC(C)C)NC(=O)[C@H](C)N(C)C(=O)[C@H](Cc3ccc(O)cc3)NC(=O)[C@H](Cc3ccc(-c4ccccc4)cc3)NC(=O)[C@H](Cc3ccc(OCC(=O)O)cc3)NC2=O)c1` [Example 2665] ({CH2CO}-TY(Carboxymethyl)D[Phe(3-Me)]Y(Carboxymethyl)[Bip]Y[NMeA][dL][Dab][Cha]VEC[Dab][AEEA][12Ado]-OH; thioether N-14): the IC50 was found to be 1.2 nM. Then `Cc1cccc(C[C@@H]2NC(=O)[C@H](CC(=O)O)NC(=O)[C@H](Cc3ccc(OCC(=O)O)cc3)NC(=O)[C@H]([C@@H](C)O)NC(=O)CSC[C@@H](C(=O)N[C@@H](CCN)C(=O)NCCOCCOCC(=O)NCCCCCCCCCCCC(=O)O)NC(=O)[C@H](CCC(=O)O)NC(=O)[C@H](C(C)C)NC(=O)[C@H](CC3CCCCC3)NC(=O)[C@H](CCN)NC(=O)[C@@H](CC(C)C)NC(=O)[C@H](C)N(C)C(=O)[C@H](Cc3ccc(OCC(=O)O)cc3)NC(=O)[C@H](Cc3ccc(-c4ccccc4)cc3)NC(=O)[C@H](Cc3ccc(O)cc3)NC2=O)c1` [Example 2666] ({CH2CO}-TY(Carboxymethyl)D[Phe(3-Me)]Y[Bip]Y(Carboxymethyl)[NMeA][dL][Dab][Cha]VEC[Dab][AEEA][12Ado]-OH; thioether N-14), with 0.7 nM; and `Cc1cccc(C[C@@H]2NC(=O)[C@H](CC(=O)O)NC(=O)[C@H](Cc3ccc(O)cc3)NC(=O)[C@H]([C@@H](C)O)NC(=O)CSC[C@@H](C(=O)N[C@@H](CCN)C(=O)NCCOCCOCC(=O)NCCCCCCCCCCCC(=O)O)NC(=O)[C@H](CCC(=O)O)NC(=O)[C@H](C(C)C)NC(=O)[C@H](CC3CCCCC3)NC(=O)[C@H](CCN)NC(=O)[C@@H](CC(C)C)NC(=O)[C@H](C)N(C)C(=O)[C@H](Cc3ccc(OCC(=O)O)cc3)NC(=O)[C@H](Cc3ccc(-c4ccccc4)cc3)NC(=O)[C@H](Cc3ccc(OCC(=O)O)cc3)NC2=O)c1` [Example 2667] ({CH2CO}-TYD[Phe(3-Me)]Y(Carboxymethyl)[Bip]Y(Carboxymethyl)[NMeA][dL][Dab][Cha]VEC[Dab][AEEA][12Ado]-OH; thioether N-14), with 0.3 nM; and `Cc1cccc(C[C@@H]2NC(=O)[C@H](CC(=O)O)NC(=O)[C@H](Cc3ccc(OCC(=O)O)cc3)NC(=O)[C@H]([C@@H](C)O)NC(=O)CSC[C@@H](C(=O)N[C@@H](CCN)C(=O)NCCOCCOCC(=O)NCCCCCCCCCCCC(=O)O)NC(=O)[C@@H](CCC(=O)O)NC(=O)[C@H](C(C)C)NC(=O)[C@H](CC3CCCCC3)NC(=O)[C@H](CCN)NC(=O)[C@@H](CC(C)C)NC(=O)[C@H](C)N(C)C(=O)[C@H](Cc3ccc(OCC(=O)O)cc3)NC(=O)[C@H](Cc3ccc(-c4ccccc4)cc3)NC(=O)[C@H](Cc3ccc(OCC(=O)O)cc3)NC2=O)c1` [Example 2668] ({CH2CO}-TY(Carboxymethyl)D[Phe(3-Me)]Y(Carboxymethyl)[Bip]Y(Carboxymethyl)[NMeA][dL][Dab][Cha]V[dE]C[Dab][AEEA][12Ado]-OH; thioether N-14), with 2.6 nM.

As for `Cc1cccc(C[C@@H]2NC(=O)[C@H](CC(=O)O)NC(=O)[C@H](Cc3ccc(OCC(=O)O)cc3)NC(=O)[C@H]([C@@H](C)O)NC(=O)CSC[C@@H](C(=O)N[C@@H](CCN)C(=O)NCCOCCOCC(=O)NCCCCCCCCCCCC(=O)O)NC(=O)[C@H](C)NC(=O)[C@H](C(C)C)NC(=O)[C@H](CC3CCCCC3)NC(=O)[C@H](CCN)NC(=O)[C@@H](CC(C)C)NC(=O)[C@H](C)N(C)C(=O)[C@H](Cc3ccc(OCC(=O)O)cc3)NC(=O)[C@H](Cc3ccc(-c4ccccc4)cc3)NC(=O)[C@H](Cc3ccc(OCC(=O)O)cc3)NC2=O)c1` [Example 2669] ({CH2CO}-TY(Carboxymethyl)D[Phe(3-Me)]Y(Carboxymethyl)[Bip]Y(Carboxymethyl)[NMeA][dL][Dab][Cha]VAC[Dab][AEEA][12Ado]-OH; thioether N-14), the IC50 is 2.4 nM.

Regarding `Cc1cccc(C[C@@H]2NC(=O)[C@H](CC(=O)O)NC(=O)[C@H](Cc3ccc(OCC(=O)O)cc3)NC(=O)[C@H]([C@@H](C)O)NC(=O)CSC[C@@H](C(=O)N[C@@H](CCN)C(=O)NCCOCCOCC(=O)NCCCCCCCCCCCC(=O)O)NC(=O)[C@@H](C)NC(=O)[C@H](C(C)C)NC(=O)[C@H](CC3CCCCC3)NC(=O)[C@H](CCN)NC(=O)[C@@H](CC(C)C)NC(=O)[C@H](C)N(C)C(=O)[C@H](Cc3ccc(OCC(=O)O)cc3)NC(=O)[C@H](Cc3ccc(-c4ccccc4)cc3)NC(=O)[C@H](Cc3ccc(OCC(=O)O)cc3)NC2=O)c1` [Example 2670] ({CH2CO}-TY(Carboxymethyl)D[Phe(3-Me)]Y(Carboxymethyl)[Bip]Y(Carboxymethyl)[NMeA][dL][Dab][Cha]V[dA]C[Dab][AEEA][12Ado]-OH; thioether N-14), the IC50 was 6.6 nM. As to `Cc1cccc(C[C@@H]2NC(=O)[C@H](CC(=O)O)NC(=O)[C@H](Cc3ccc(CN)cc3)NC(=O)[C@H]([C@@H](C)O)NC(=O)CSC[C@@H](C(=O)N[C@@H](CCN)C(=O)NCCCCCCCCC(=O)NCCCCCCCCCCC(=O)O)NC(=O)[C@H](CCCN)NC(=O)[C@H](C(C)C)NC(=O)[C@H](CC3CCCCC3)NC(=O)[C@H](CCN)NC(=O)[C@@H](CC(C)C)NC(=O)[C@H](C)N(C)C(=O)[C@H](Cc3ccc(CN)cc3)NC(=O)[C@H](Cc3ccc(-c4ccccc4)cc3)NC(=O)[C@H](Cc3ccc(CN)cc3)NC2=O)c1` [Example 2671] ({CH2CO}-T[Phe(4-CH2NH2)]D[Phe(3-Me)][Phe(4-CH2NH2)][Bip][Phe(4-CH2NH2)][NMeA][dL][Dab][Cha]V[Orn]C[Dab][NH(CH2)8CO][Aun]-OH; thioether N-14), the IC50 was 30.1 nM.

Take `Cc1cccc(C[C@@H]2NC(=O)[C@H](CC(=O)O)NC(=O)[C@H](Cc3ccc(OCC(=O)O)cc3)NC(=O)[C@H]([C@@H](C)O)NC(=O)CSC[C@@H](C(=O)N[C@@H](CCN)C(=O)NCCOCCOCC(=O)NCCCCCCCCCCCC(=O)O)NC(=O)C3(CC3)NC(=O)[C@H](C(C)C)NC(=O)[C@H](CC3CCCCC3)NC(=O)[C@H](CCN)NC(=O)[C@@H](CC(C)C)NC(=O)[C@H](C)N(C)C(=O)[C@H](Cc3ccc(OCC(=O)O)cc3)NC(=O)[C@H](Cc3ccc(-c4ccccc4)cc3)NC(=O)[C@H](Cc3ccc(OCC(=O)O)cc3)NC2=O)c1` [Example 2672] ({CH2CO}-TY(Carboxymethyl)D[Phe(3-Me)]Y(Carboxymethyl)[Bip]Y(Carboxymethyl)[NMeA][dL][Dab][Cha]V[Ac3c]C[Dab][AEEA][12Ado]-OH; thioether N-14): the IC50 was determined as 200 nM.
